Measured values: patent publication US12258370B2, “Betulastatin compounds” (Arizona Board of Regents on behalf of Arizona State …, priority 2017, dated 2025)
In brackets after ≈: the same amount, converted by molar mass.

Columns and labels:
Format in all cases: cell-based
BXPC-3 (pancreas) = assay: Sulforhodamine B human cancer cell growth inhibition, BXPC-3; details: BXPC-3 pancreas cell line, compounds in DMSO, 48 h; for IC50: Homo sapiens, read-out: Gl50 Growth Inhibition, XPC-3
Protocol: (§1) Cancer Cell Line Procedures. Inhibition of human cancer cell growth was assessed using the standard sulforhodamine B assay of the U.S. National Cancer Institute, as previously described.^15 To begin, cells in a 5% fetal bovine serum/RPMI1640 medium were inoculated in 96-well plates and incubated for 24 h. Next, serial dilutions of the compounds were added. After 48 h, the plates were fixed with trichloroacetic acid, stained with sulforhodamine B, and read with an automated microplate reader.

MCF-7 (breast) = assay: Sulforhodamine B human cancer cell growth inhibition, MCF-7; details: compounds in DMSO, 48 h; for Gl50 Growth Inhibition, MCF-7: MCF-7 breast cell line; for IC50: Homo sapiens, MCF7, MCF-7 breast cell line, read-out: Gl50 Growth Inhibition, MCF-7
Protocol: as §1

SF-268 (CNS) = assay: Sulforhodamine B human cancer cell growth inhibition, SF-268; details: SF-268 CNS cell line, compounds in DMSO, 48 h; for IC50: Homo sapiens, read-out: Gl50 Growth Inhibition, SF-268
Protocol: as §1

NCI-H460 (lung) = assay: Sulforhodamine B human cancer cell growth inhibition, NCI-H460; details: NCI-H460 lung cell line, compounds in DMSO, 48 h; for IC50: Homo sapiens, read-out: Gl50 Growth Inhibition, NCI-H460
Protocol: as §1

KM20L2 (colon) = assay: Sulforhodamine B human cancer cell growth inhibition, KM20L2; details: compounds in DMSO, 48 h; for Gl50 Growth Inhibition, KM20L2: KM20L2 colon cell line; for IC50: Homo sapiens, KM-20L2, KM20L2 colon cell line, read-out: Gl50 Growth Inhibition, KM20L2
Protocol: as §1

DU-145 (prostate) = assay: Sulforhodamine B human cancer cell growth inhibition, DU-145; details: DU-145 prostate cell line, compounds in DMSO, 48 h; for IC50: Homo sapiens, read-out: Gl50 Growth Inhibition, DU-145
Protocol: as §1

Human Cancer Cell Lines = assay: Human cancer cell line panel, overall comparison of growth inhibition; details: general statement on Table 1; comparator not stated
Protocol: as §1, with “reader. A growth inhibition of 50% (GI50 or the drug concentration causing a 50% reduction in the net protein increase) was calculated from optical density data with Immunosoft® software.” for “reader.”

3β-Amino-N-(Dap-Dil-Val-Dov)-betulin [Compound 11b]
Gl50 Growth Inhibition, XPC-3 (BXPC-3 (pancreas)): 2.0 µg/mL
Gl50 Growth Inhibition, MCF-7 (MCF-7 (breast)): 0.70 µg/mL
Gl50 Growth Inhibition, SF-268 (SF-268 (CNS)): 0.40 µg/mL
Gl50 Growth Inhibition, NCI-H460 (NCI-H460 (lung)): 2.1 µg/mL
Gl50 Growth Inhibition, KM20L2 (KM20L2 (colon)): 0.85 µg/mL
Gl50 Growth Inhibition, DU-145 (DU-145 (prostate)): 0.40 µg/mL
fold increase in cancer cell growth inhibition (Human Cancer Cell Lines): ~10 fold

C=C(C)[C@@H]1CC[C@]2(COC(C)=O)CC[C@]3(C)[C@H](CC[C@@H]4[C@@]5(C)CCC(N)C(C)(C)[C@@H]5CC[C@]43C)[C@@H]12 (single isomer, unassigned) [Compound 9b, 3-α/β-Amino-28-O-acetyl-betulin]
Gl50 Growth Inhibition, XPC-3 (BXPC-3 (pancreas)): 1.1 µg/mL
Gl50 Growth Inhibition, MCF-7 (MCF-7 (breast)): 0.20 µg/mL
Gl50 Growth Inhibition, SF-268 (SF-268 (CNS)): 0.21 µg/mL
Gl50 Growth Inhibition, NCI-H460 (NCI-H460 (lung)): 0.21 µg/mL
Gl50 Growth Inhibition, KM20L2 (KM20L2 (colon)): 0.35 µg/mL
Gl50 Growth Inhibition, DU-145 (DU-145 (prostate)): 0.13 µg/mL
fold increase in cancer cell growth inhibition (Human Cancer Cell Lines): ~10 fold

C=C(C)[C@@H]1CC[C@]2(CNC(=O)[C@H](C)[C@@H](OC)C3CCCN3C(=O)C[C@@H](OC)[C@H]([C@@H](C)CC)N(C)C(=O)C(NC(=O)[C@H](C(C)C)N(C)C)C(C)C)CC[C@]3(C)C(CCC4[C@@]5(C)CC[C@H](O)C(C)(C)C5CC[C@]43C)C12 (stereo partly drawn) [Compound 7b, Betulin-28-amino-N-(Dap-Dil-Val-Dov)]
IC50 (BXPC-3 (pancreas)): 0.6 µg/mL (≈ 0.587 µM)
IC50 (MCF-7 (breast)): 0.4 µg/mL (≈ 0.391 µM)
IC50 (SF-268 (CNS)): 0.3 µg/mL (≈ 0.293 µM)
IC50 (NCI-H460 (lung)): > 1 µg/mL
IC50 (KM20L2 (colon)): 0.31 µg/mL (≈ 0.303 µM)
IC50 (DU-145 (prostate)): 0.4 µg/mL (≈ 0.391 µM)
fold increase in cancer cell growth inhibition (Human Cancer Cell Lines): ~10 fold

C=C(CNC(=O)[C@H](C)[C@@H](OC)[C@@H]1CCCN1C(=O)OC(C)(C)C)[C@@H]1CC[C@]2(COC(C)=O)CC[C@]3(C)[C@H](CC[C@@H]4[C@@]5(C)CC[C@H](OC(C)=O)C(C)(C)[C@@H]5CC[C@]43C)[C@@H]12 [Compound 15b, 30-N-(Boc-dap)-3, 28-di-O-acetoxy-betulin]
Gl50 Growth Inhibition, XPC-3 (BXPC-3 (pancreas)): >10 µg/mL
Gl50 Growth Inhibition, MCF-7 (MCF-7 (breast)): >10 µg/mL
Gl50 Growth Inhibition, SF-268 (SF-268 (CNS)): 5.9 µg/mL
Gl50 Growth Inhibition, NCI-H460 (NCI-H460 (lung)): >10 µg/mL
Gl50 Growth Inhibition, KM20L2 (KM20L2 (colon)): 7.0 µg/mL
Gl50 Growth Inhibition, DU-145 (DU-145 (prostate)): >10 µg/mL

C=C(CNC(=O)[C@H](C)[C@@H](OC)[C@@H]1CCCN1C(=O)C[C@@H](OC)[C@H]([C@@H](C)CC)N(C)C(=O)[C@@H](NC(=O)[C@H](C(C)C)N(C)C)C(C)C)[C@@H]1CC[C@]2(COC(C)=O)CC[C@]3(C)[C@H](CC[C@@H]4[C@@]5(C)CC[C@H](OC(C)=O)C(C)(C)[C@@H]5CC[C@]43C)[C@@H]12 [Compound 16a, 30-N-(Dap-Dil-Val-Dov)-3,28-di-O-acetoxy-betulin]
Gl50 Growth Inhibition, XPC-3 (BXPC-3 (pancreas)): 8.0 µg/mL
Gl50 Growth Inhibition, MCF-7 (MCF-7 (breast)): 6.3 µg/mL
Gl50 Growth Inhibition, SF-268 (SF-268 (CNS)): 4.0 µg/mL
Gl50 Growth Inhibition, NCI-H460 (NCI-H460 (lung)): >10 µg/mL
Gl50 Growth Inhibition, KM20L2 (KM20L2 (colon)): 4.0 µg/mL
Gl50 Growth Inhibition, DU-145 (DU-145 (prostate)): 3.0 µg/mL

C=C(CNC(=O)[C@H](C)[C@@H](OC)C1CCCN1C(=O)C[C@@H](OC)[C@H]([C@@H](C)CC)N(C)C(=O)[C@@H](NC(=O)C(C(C)C)N(C)C)C(C)C)[C@@H]1CC[C@]2(CO)CC[C@]3(C)C(CCC4[C@@]5(C)CC[C@H](O)C(C)(C)[C@@H]5CC[C@]43C)[C@@H]12 (stereo partly drawn) [Compound 16b, 30-N-(Dap-Dil-Val-Dov)-betulin]
IC50 (BXPC-3 (pancreas)): 0.4 µg/mL (≈ 0.385 µM)
IC50 (MCF-7 (breast)): 0.08 µg/mL (≈ 0.077 µM)
IC50 (SF-268 (CNS)): 0.04 µg/mL (≈ 0.0385 µM)
IC50 (NCI-H460 (lung)): 0.5 µg/mL (≈ 0.481 µM)
IC50 (KM20L2 (colon)): 0.09 µg/mL (≈ 0.0867 µM)
IC50 (DU-145 (prostate)): 0.04 µg/mL (≈ 0.0385 µM)
fold increase in cancer cell growth inhibition (Human Cancer Cell Lines): hundred-fold

CC[C@H](C)C([C@@H](CC(=O)N1CCCC1[C@H](OC)[C@@H](C)C(=O)NCCN1C(=O)[C@]23CCC(C)(C)C1C2[C@H]1CCC2[C@@]4(C)CC[C@H](O)C(C)(C)C4CC[C@@]2(C)[C@]1(C)CC3)OC)N(C)C(=O)[C@@H](NC(=O)[C@H](C(C)C)N(C)C)C(C)C (stereo partly drawn) [Compound 18b, 28-Amido-allobetulin-28-N-1′-ethyldiamine-N-2′-Dap-Dil-Val-Dov]
IC50 (BXPC-3 (pancreas)): 0.31 µg/mL (≈ 0.287 µM)
IC50 (MCF-7 (breast)): 0.21 µg/mL (≈ 0.195 µM)
IC50 (SF-268 (CNS)): 0.09 µg/mL (≈ 0.0834 µM)
IC50 (NCI-H460 (lung)): 0.6 µg/mL (≈ 0.556 µM)
IC50 (KM20L2 (colon)): 0.22 µg/mL (≈ 0.204 µM)
IC50 (DU-145 (prostate)): 0.06 µg/mL (≈ 0.0556 µM)
fold increase in cancer cell growth inhibition (Human Cancer Cell Lines): ~10 fold
